From US20170291905A1, “ARGININE […] INHIBITORS AND USES THEREOF” (Epizyme, Inc., priority 2014, published 2017)

Target: T1, full-length human PRMT1 isoform 1 (GST-tagged) (Homo sapiens, UniProt Q99873)
T1 construct: GST-tagged PRMT1 was eluted with 50 mM Tris, 2 mM glutathione, pH 7.8, dialysed in buffer A and concentrated; made in house; host or cells: High Five insect cells (baculovirus)
Assay: PRMT1 biochemical assay (3H-SAM Flashplate, histone H4 36-50 peptide)
Conditions: 0.5 nM PRMT1, 30 min preincubation, 20 nM peptide
Summary of the method: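 GST-PRMT1 (0.5 nM) preincubated 30 min at room temperature with compound in bicine buffer pH 7.6. Reaction then run with 200 nM 3H-SAM plus 1.5 uM SAM and 20 nM biotinylated H4 36-50 peptide, 2% DMSO. Stopped with excess cold SAM, and methylated peptide captured on streptavidin Flashplates for counting; % inhibition versus DMSO and 1 mM SAH controls, 3- or 4-parameter fit.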

T1 sequence (Q99873 with tags, fused parts or gaps): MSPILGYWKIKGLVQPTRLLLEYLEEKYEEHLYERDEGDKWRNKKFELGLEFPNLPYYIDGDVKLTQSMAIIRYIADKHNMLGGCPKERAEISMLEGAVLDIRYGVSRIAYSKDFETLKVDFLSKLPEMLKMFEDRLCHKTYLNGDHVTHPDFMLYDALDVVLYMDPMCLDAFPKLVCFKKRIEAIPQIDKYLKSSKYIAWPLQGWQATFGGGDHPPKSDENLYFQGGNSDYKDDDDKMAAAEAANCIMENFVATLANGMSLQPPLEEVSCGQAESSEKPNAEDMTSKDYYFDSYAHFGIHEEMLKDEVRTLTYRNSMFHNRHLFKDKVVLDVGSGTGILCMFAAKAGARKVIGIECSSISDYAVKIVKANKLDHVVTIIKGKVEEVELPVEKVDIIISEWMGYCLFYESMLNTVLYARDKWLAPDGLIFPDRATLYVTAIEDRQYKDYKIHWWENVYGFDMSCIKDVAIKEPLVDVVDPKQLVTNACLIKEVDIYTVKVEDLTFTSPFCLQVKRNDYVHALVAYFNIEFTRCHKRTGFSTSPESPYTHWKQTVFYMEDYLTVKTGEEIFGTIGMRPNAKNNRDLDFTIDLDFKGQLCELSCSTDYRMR

Row | SMILES | IC50 [nM]
1 | CNCCN(C)Cc1c[nH]nc1C1CCC(CO)(CO)CC1 [compound 44, (4-(4-((methyl(2-(methylamino)ethyl)amino)methyl)-1H-pyrazol-3-yl)cyclohexane-1,1-diyl)dimethanol] | 21.3
2 | CCOCCOCC1(COCCOCC)CCC(c2n[nH]cc2CN(C)CCNC)CC1 [compound 39, N1-((3-(4,4-bis((2-ethoxyethoxy)methyl)cyclohexyl)-1H-pyrazol-4-yl)methyl)-N1,N2-dimethylethane-1,2-diamine] | 31.2
3 | CC[C@H]1CC[C@@H](c2n[nH]cc2CN(C)CCNC)CC1 [compound 1] | 4.8
4 | CNCCN(C)Cc1c[nH]nc1C1CCC(COCC2CC2)(COCC2CC2)CC1 [compound 41, N1-((3-(4,4-bis((cyclopropylmethoxy)methyl)cyclohexyl)-1H-pyrazol-4-yl)methyl)-N1,N2-dimethylethane-1,2-diamine] | 4.33
5 | CNCCN(C)Cc1c[nH]nc1C1=CCC2(CC1)CC(C)(C)CO2 (stereo not drawn) [compound 46, N1-((3-(3,3-dimethyl-1-oxaspiro[4.5]dec-7-en-8-yl)-1H-pyrazol-4-yl)methyl)-N1,N2-dimethylethane-1,2-diamine] | 19.8
6 | CN(C)CCN(C)Cc1c[nH]nc1[C@H]1CC[C@@]2(CC1)CC(C)(C)CO2 [compound 42, N1-((3-((5S,8S)-3,3-dimethyl-1-oxaspiro[4.5]decan-8-yl)-1H-pyrazol-4-yl)methyl)-N1,N2,N2-trimethylethane-1,2-diamine] | 31.5

More lines, now with the values ahead:

Row | IC50 [nM] | SMILES
7 | 33 | CNCCN(C)Cc1c[nH]nc1C1CCC(COC)(COCC2CCOCC2)CC1 (stereo not drawn) [compound 45]
8 | 57 | CN(C)CCN(C)Cc1c[nH]nc1[C@H]1CC[C@]2(CC1)CC(C)(C)CO2 [compound 43, N1-((3-((5r,8r)-3,3-dimethyl-1-oxaspiro[4.5]decan-8-yl)-1H-pyrazol-4-yl)methyl)-N1,N2,N2-trimethylethane-1,2-diamine]
9 | 19.3 | CNCCN(C)Cc1ccnn1[C@H]1CC[C@@]2(CC1)CC(C)(C)CO2 [compound 49, N1-((1-((5s,8s)-3,3-dimethyl-1-oxaspiro[4.5]decan-8-yl)-1H-pyrazol-5-yl)methyl)-N1,N2-dimethylethane-1,2-diamine]
10 | 15.2 | CCC1(CC)C[C@]2(CC[C@H](c3n[nH]cc3CN(C)CCNC)CC2)NC1=O [compound 47, (5s,8s)-3,3-diethyl-8-(4-((methyl(2-(methylamino)ethyl)amino)methyl)-1H-pyrazol-3-yl)-1-azaspiro[4.5]decan-2-one]
11 | 35.3 | CCC1(CC)C[C@]2(CC[C@@H](c3n[nH]cc3CN(C)CCNC)CC2)NC1=O [compound 48, (5r,8r)-3,3-diethyl-8-(4-((methyl(2-(methylamino)ethyl)amino)methyl)-1H-pyrazol-3-yl)-1-azaspiro[4.5]decan-2-one]
12 | 20.7 | CNCCN(C)Cc1c[nH]nc1C1CCC(COCCC2CCOCC2)(COCCC2CCOCC2)CC1 [compound 40]
